Earlier results as cited in patent US20060247361A1, “Polar functionalized polymer modified porous substrate for solid phase extraction” (priority 2005, published 2006).
Where a name gives a salt, the structure may show the parent alone.

Row | Compound | Log P
1 | CN(C)CCC(c1ccc(Br)cc1)c1ccccn1 (stereo not shown) [Brompheniramine] | 3.89
2 | CN(C)CCC(c1ccc(Cl)cc1)c1ccccn1 (stereo not shown) [Chlorpheniramine maleate] | 3.38
3 | CN1CCN2c3ccccc3Cc3ccccc3C2C1 (stereo not shown) [Mianserin] | 3.85
4 | NCCC(Oc1ccc(C(F)(F)F)cc1)c1ccccc1 (stereo not shown) [Norfluoxetine] | 3.75
5 | CNCCC=C1c2ccccc2CCc2ccccc21 [Nortriptyline] | 4.74
6 | CC(C)(C)NCC(O)c1ccc(O)c(CO)c1 (stereo not shown) [Salbutamol] | 0.97
7 | CC(C)(C)NC[C@H](O)COc1nsnc1N1CCOCC1 [Timolol maleate] | 1.83
